In patent US20250034084A1, “COMPOSITIONS AND METHODS FOR PREVENTING OR TREATING MYCOSIS” (AMTIXBIO CO., LTD., priority 2016, published 2025):
≈ marks a conversion by molar mass, not a printed value.

Experiments:
[1] = tested on: Aspergillus fumigatus strains (KCCM32791, KCCM60031, KCCM60293, KCCM60036, KCCM60031, and KCCM60027); assay: MIC test against several Aspergillus fumigatus strains (FIG. 2); type: cell-based
[2] = tested on: Trichophyton tonsurans, Trichophyton rubrum, Trichophyton mentagrophytes; assay: Suppressive activity against Trichophytons on YPD solid medium; type: cell-based; settings: six Trichophyton strains
[3] = tested on: Fusarium graminearum (KCTC16656) and Fusarium (KSU11480); type: cell-based; settings: YPD solid medium, FIG. 4
[4] = tested on: Cryptococcus neoformans var. grubii H99 (ATCC); assay: Antifungal activity assay (MIC), NCCLS method; type: cell-based; settings: RPMI 1640 medium
Excerpt: (§1) In order to measure the minimum inhibitory concentration (MIC), strains Candida albicans SC5314 (ATCC), Candida glabrata BG2 (ATCC), and Cryptococcus neoformans var. grubii […] were used. All the strains used in the test examples of the present invention were purchased from Korean Culture Center of Microorganisms (KCCM) and ATCC, and used. […] As a control group, amphotericin B and fluconazole, which are known to have excellent antifungal inhibitory activity with a problem of human toxicity, were used. Specifically, in order to prepare a medium first, 8.4 g of RPMI-1640 powder (Sigma; […]-1L) was added to 900 ml of distilled water. Next, 34.5 g of MOPS was added thereto, to bring the final concentration to 0.165 M. Then, 100 ml of 20% glucose was added thereto, and then the pH of the resultant was adjusted to 7 using NaOH. Next, after performing filtration with a filter, the filtrate was stored in a refrigeration condition at 4° C. for use in the next experiment. The experimental method and procedure for the MIC assay were as follows: […] (c) in a case of Aspergillus fumigatus, a diluent was prepared at a concentration of 1×10^5 conidia/ml; (d) a 96-well plate was used and 100 μl of the solution was added to each well, so that 2 μl of diluted drug was prepared; (e) 200 μl of the solution was added to a well into which the highest concentration of drug was to be added, and dilution was performed by serial dilution; (f) after performing static culture for 48 hours at 37° C., a degree of growth was measured at OD600 and a comparison was made.

[5] = tested on: Candida glabrata BG2 (ATCC); assay: Antifungal activity assay (MIC), NCCLS method; type: cell-based; settings: RPMI 1640 medium
Excerpt: as §1

[6] = tested on: Candida albicans SC5314 (ATCC); assay: Antifungal activity assay (MIC), NCCLS method; type: cell-based; settings: RPMI 1640 medium
Excerpt: as §1

[7] = tested on: Cryptococcus neoformans wild-type (H99S); assay: Drug efficacy in Galleria mellonella insect model infected with C. neoformans
Description: The wild-type (H99S) strain of Cryptococcus neoformans, which is pathogenic fungi, was inoculated into a yeast extract, peptone, and dextrose (YPD) liquid medium, cultured for 16 hours, and then washed twice with phosphate buffered saline (PBS), to prepare a final sample of 10^6 cells/ml. […] A 4 p1 suspension of C. neoformans prepared was injected into a proleg of larvae, so that 4,000 pathogen cells were infected per larva, in which an automatic injector (PB600-1) manufactured by Hamilton Company, and 100 pl syringes and needles were used. […] A group into which PBS alone was injected each time after the infection with C. neoformans was tested as a positive control, and a group in which both infection and drug injection were replaced with PBS was tested as a negative control. […] The larvae were determined as dead in a case where the larvae became dark-colored and made no movement. […] For significance with the controls, a significance level was determined using the Long-rank (Mantel-Cox) method.

Molecule | inhibitory activity (MIC, average values) compared with amphotericin B [1] | suppressive activity against Trichophytons [2] | suppressive activity against phytopathogenic fungi [3] | MIC C. neoformans [4] [µg/mL] | MIC C. glabrata [5] [µg/mL] | MIC C. albicans [6] [µg/mL] | MIC C. neoformans ([4]; hydrochloride) [µg/mL] | MIC C. glabrata ([5]; hydrochloride) [µg/mL] | survival rate on day 7 of the infection ([7]; PBS group all died) [%] | survival of larvae on day 3 of the infection ([7]; drug injected 3 h after infection and once every 24 h for two more days, PBS group 60%)
(R)/(S)-1-((4-((4-(trifluorobenzyl)oxy)benzyl)amino)-1-oxopentane-2-aminium chloride [Compound 26] | higher inhibitory activity than amphotericin B | excellent suppressive activity | very excellent suppressive activity | 4 | 8 | 16 |  |  |  | 
CCC(NC)C(=O)NCc1ccc(OCc2cccc(Cl)c2)cc1 (racemic) [Compound 28, (R)/(S)-N-(4-((3-chlorobenzyl)oxy)benzyl)-2-(methylamino)butanamide] | higher inhibitory activity than amphotericin B |  |  | 16 (≈ 46.1 µM) | 64 (≈ 185 µM) | 64 (≈ 185 µM) |  |  |  | 
CCC(N)C(=O)NCc1ccc(OCc2ccc(C(F)(F)F)cc2)cc1.Cl (racemic) [Compound 22, (R)/(S)-1-oxo-1-((4-((4-(trifluoromethyl)benzyl)oxy)benzyl)amino)butane-2-aminium chloride] | higher inhibitory activity than amphotericin B |  |  | 16 | 32 | 64 |  |  |  | 
Cl.O=C(NCc1ccc(OCc2ccc(Cl)cc2)cc1)C1CCCN1 (racemic) [Compound 51, (R)/(S)-2-((4-(4-chlorobenzyl)oxy)benzyl) carbamoyl)pyrrolidi-1-nium chloride] |  |  |  | 8 | 128 | 64 |  |  |  | 
CCC(NC)C(=O)NCc1ccc(OCc2ccc(Cl)cc2)cc1 (racemic) [Compound 29, (R)/(S)-N-(4-((4-chlorobenzyl)oxy)benzyl)-2-(methylamino)butanamide] |  |  |  | 8 (≈ 23.1 µM) | 32 (≈ 92.3 µM) | 32 (≈ 92.3 µM) |  |  |  | 
CCC(N)C(=O)NCc1ccc(OCc2cccc(Cl)c2)cc1.Cl (racemic) [Compound 23, (R)/(S)-1-((4-((3-(chlorobenzyl)oxy)benzyl)amino)-1-oxobutane-2-aminium chloride] |  |  |  | 16 | 64 | 64 |  |  |  | 
Cl.O=C(NCc1ccc(OCc2ccc(C(F)(F)F)cc2)cc1)C1CCCN1 (racemic) [Compound 50, (R)/(S)-2-((4-((4-(trifluoromethyl)benzyl)oxy)benzyl)carbamoyl)pyrrolidi-1-nium chloride] |  |  |  | 8 | 128 | 64 |  |  |  | 
Cl.O=C(NCc1ccc(OCc2ccc(C(F)(F)F)cc2)cc1)C1CCCN1 (racemic) [Compound 40, (R)/(S)-N-(4-((4-(trifluoromethyl)benzyl)oxy)benzyl)pyrrolidine-2-carboxamide hydrochloride] |  |  |  |  |  | 64 | 16 | 32 |  | 
CCC(N)C(=O)NCc1ccc(OCc2cccc(F)c2)cc1.Cl (racemic) [Compound 18, (R)/(S)-1-((4-((3-(fluorobenzyl)oxy)benzyl)amino)-1-oxobutane-2-aminium chloride] |  |  |  | 128 | >128 | >128 |  |  | 50 | all survived
CCC(N)C(=O)NCc1ccc(OCc2cccc(C(F)(F)F)c2)cc1.Cl (racemic) [Compound 21, (R)/(S)-1-oxo-1-((4-((3-(trifluoromethyl)benzyl)oxy)benzyl)amino)butane-2-aminium chloride] |  |  |  | 16 | 64 | 64 |  |  |  | 
Cl.O=C(NCc1ccc(OCc2ccc(Cl)cc2)cc1)C1CCCN1 (racemic) [Compound 41, (R)/(S)-N-(4-((4-chlorobenzyl)oxy)benzyl)pyrrolidine-2-carboxamide hydrochloride] |  |  |  |  |  | 64 | 32 | 64 |  | 
CCCC(NC)C(=O)NCc1ccc(OCc2ccc(C(F)(F)F)cc2)cc1 (racemic) [Compound 31, (R)/(S)-2-(methylamino)-N-(4-((4-trifluoromethyl)benzyl)oxy)benzyl)pentanamide] |  |  |  | 4 (≈ 10.1 µM) | 16 (≈ 40.6 µM) | 16 (≈ 40.6 µM) |  |  |  | 
